Data published in PubChem BioAssay (NCI).
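Following 48 hours of exposure in 96-well plates, responses at five concentrations were used to interpolate endpoints linearly. GI50 is the concentration that inhibits growth by half. TGI: concentration producing complete growth inhibition.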

Tests used:
Test in all cases: NCI anticancer screen, dose series, 48 h
K-562 leukemia = test system: K-562 leukemia
OVCAR-4 ovarian = test system: OVCAR-4 ovarian
OVCAR-8 ovarian = test system: OVCAR-8 ovarian
OVCAR-5 ovarian = test system: OVCAR-5 ovarian
HCC-2998 colon = test system: HCC-2998 colon
T-47D breast = test system: T-47D breast
UACC-62 melanoma = test system: UACC-62 melanoma
SNB-19 CNS = test system: SNB-19 CNS
HOP-92 NSCLC = test system: HOP-92 NSCLC
LOX IMVI melanoma = test system: LOX IMVI melanoma
MOLT-4 leukemia = test system: MOLT-4 leukemia
MDA-MB-468 breast = test system: MDA-MB-468 breast
MCF7 breast = test system: MCF7 breast
SF-539 CNS = test system: SF-539 CNS
CAKI-1 renal = test system: CAKI-1 renal
EKVX NSCLC = test system: EKVX NSCLC
RPMI-8226 leukemia = test system: RPMI-8226 leukemia
PC-3 prostate = test system: PC-3 prostate
HS 578T breast = test system: HS 578T breast
786-0 renal = test system: 786-0 renal
ACHN renal = test system: ACHN renal
MALME-3M melanoma = test system: MALME-3M melanoma
SN12C renal = test system: SN12C renal
DU-145 prostate = test system: DU-145 prostate
BT-549 breast = test system: BT-549 breast
SNB-75 CNS = test system: SNB-75 CNS
COLO 205 colon = test system: COLO 205 colon
SK-MEL-5 melanoma = test system: SK-MEL-5 melanoma
RXF 393 renal = test system: RXF 393 renal
HCT-116 colon = test system: HCT-116 colon

Structure (SMILES): COc1ccc(CCN2C(=O)/C(=C/c3csc(C#N)n3)SC2=S)cc1OC
- TGI (K-562 leukemia): 15.5 µM
- GI50 (OVCAR-4 ovarian): 11.4 µM
- TGI (OVCAR-4 ovarian): 32.9 µM
- GI50 (OVCAR-8 ovarian): 15.4 µM
- TGI (OVCAR-8 ovarian): 30.5 µM
- GI50 (OVCAR-5 ovarian): 21.2 µM
- TGI (OVCAR-5 ovarian): 69.5 µM
- GI50 (HCC-2998 colon): 15.3 µM
- TGI (HCC-2998 colon): 29.9 µM
- GI50 (T-47D breast): 3.22 µM
- TGI (T-47D breast): 20.6 µM
- GI50 (UACC-62 melanoma): 11.5 µM
- TGI (UACC-62 melanoma): 23.9 µM
- GI50 (SNB-19 CNS): 20.7 µM
- TGI (SNB-19 CNS): 54 µM
- GI50 (HOP-92 NSCLC): 2.12 µM
- TGI (HOP-92 NSCLC): 8.56 µM
- GI50 (LOX IMVI melanoma): 2.9 µM
- TGI (LOX IMVI melanoma): 10.6 µM
- GI50 (MOLT-4 leukemia): 3.94 µM
- TGI (MOLT-4 leukemia): 25.4 µM
- GI50 (MDA-MB-468 breast): 2.67 µM
- TGI (MDA-MB-468 breast): 14.9 µM
- GI50 (MCF7 breast): 3.3 µM
- TGI (MCF7 breast): 15.7 µM
- GI50 (SF-539 CNS): 12.5 µM
- TGI (SF-539 CNS): 25 µM
- GI50 (CAKI-1 renal): 16.5 µM
- TGI (CAKI-1 renal): 33.3 µM
- GI50 (EKVX NSCLC): 22.2 µM
- TGI (EKVX NSCLC): 60 µM
- GI50 (RPMI-8226 leukemia): 3.03 µM
- TGI (RPMI-8226 leukemia): 19.9 µM
- GI50 (PC-3 prostate): 15.6 µM
- TGI (PC-3 prostate): 37.9 µM
- GI50 (HS 578T breast): 19.8 µM
- TGI (HS 578T breast): 72.9 µM
- GI50 (786-0 renal): 5.56 µM
- TGI (786-0 renal): 18.9 µM
- GI50 (ACHN renal): 13.4 µM
- TGI (ACHN renal): 31.4 µM
- GI50 (MALME-3M melanoma): 11.9 µM
- TGI (MALME-3M melanoma): 29.7 µM
- GI50 (SN12C renal): 11.9 µM
- TGI (SN12C renal): 26.4 µM
- GI50 (DU-145 prostate): 2.96 µM
- TGI (DU-145 prostate): 10.5 µM
- GI50 (BT-549 breast): 11.4 µM
- TGI (BT-549 breast): 24.2 µM
- GI50 (SNB-75 CNS): 22.6 µM
- TGI (SNB-75 CNS): > 100 µM
- GI50 (COLO 205 colon): 21.6 µM
- TGI (COLO 205 colon): 87.5 µM
- GI50 (SK-MEL-5 melanoma): 13.6 µM
- TGI (SK-MEL-5 melanoma): 28.8 µM
- GI50 (RXF 393 renal): 3.56 µM
- TGI (RXF 393 renal): 12.6 µM
- GI50 (HCT-116 colon): 4.55 µM
- TGI (HCT-116 colon): 16.9 µM
